Data set [1] concerns the target HCV polymerase (Hepatitis C virus genotype 1b, UniProt Q9WMX2). As to the kind of experiment: Biochemical HCV polymerase inhibition.
Data set [2] deals with T1, dengue virus NS5 polymerase domain (DENVpol, serotype 2, New Guinea C strain) (Dengue virus type 2, UniProt P14340).
T1 construct: The enzyme activity of dengue virus NS5 polymerase domain
Kind of data set: Dengue virus polymerase inhibition assay. In kind it is biochemical, dengue virus serotype 2. The protocol: The enzyme activity of dengue virus NS5 polymerase domain (DENVpol, serotype 2, New Guinea C strain) is measured as an incorporation of tritiated NMP into acid-insoluble RNA products. DENVpol assay reactions contain recombinant enzyme, heteropolymeric RNA, about 0.5 μCi tritiated NTP, 0.33 μM of competing cold NTP, 40 mM HEPES (pH 7.5), 3 mM dithiothreitol, and 2 mM MgCl2. Standard reactions are incubated for 3 hours at 30° C., in the presence of increasing concentration of inhibitor. At the end of the reaction, RNA is precipitated with 10% TCA, and acid-insoluble RNA products are filtered on a size exclusion 96-well plate. After washing of the plate, scintillation liquid is added and radiolabeled RNA products are detected according to standard procedures with a Trilux Topcount scintillation counter. The compound concentration at which the enzyme-catalyzed rate is reduced by 50% (IC50) is calculated by fitting the data to a non-linear regression (sigmoidal).

Data set [3] has as its system DENV-2/16681/eGFP. Kind of data set: Antiviral activity against DENV-2/16681/eGFP in Vero cells (eGFP read-out). It counts as cell-based, dengue virus serotype 2. As to conditions: Dengue virus, DENV2, Vero, 72 h, read-out: DENV Vero (EC50, μM). How it is done: (§1) The antiviral activity of the compounds against DENV-2/16681/eGFP was determined in a phenotypic antiviral assay with eGFP read-out, a measure for the amount of virus (TV-WI-03476 and TV-WI-05601). In parallel, cytotoxicity of the compounds was measured using ATPLite™ (PerkinElmer, Waltham, Mass.). The assay was performed in two different cell-lines (Vero and Huh-7) to exclude cell-specific activity of the compound.
(§2) DENV-2/16681/eGFP was produced by the transfection of the in vitro transcribed RNA of plasmid pFK-DVs-G2A (purchased from Prof. R. Bartenschlager, University of Heidelberg, Germany; FIG. 1) into Huh-7 cells (human hepatocarcinoma cells; kindly provided by Prof. R. Bartenschlager) (TV-WI-04247).
(§3) In brief, 2,500 Vero cells (African green monkey kidney cells; European Collection of Cell Cultures [ECACC], Porton Down, UK; catalogue number 84113001) or Huh-7 cells were seeded in 384-well plates containing 9-fold serially diluted test compound. After incubating 24 h at 37° C., Vero and Huh-7 cells were infected with DENV-2/16681/eGFP at a multiplicity of infection (MOI) of 1 and 5, respectively. After 3 days of incubation at 37° C., the viral replication was quantified by measuring eGFP expression in the cells with a laser microscope. The 50% effective concentration (EC50) was defined as the concentration inhibiting 50% of the eGFP expression of the compound-treated DENV-infected cells vs. the untreated DENV-infected cells (virus control), using the cell controls as baseline of eGFP signal (i.e., 0% signal). In the same way, the 90% effective concentration (EC90) was calculated.

Data set [4] can be described thus: Cytotoxicity in Huh-7 cells (ATPlite cell viability). In kind it is cell-based. As to conditions: human, Table 1A, read-out: Tox Huh-7 (CC50). How it is done:
as §1
(§4) In parallel, cytotoxic effects of the compounds (50% cytotoxic concentration [CC50] and 90% cytotoxic concentration [CC90]) were evaluated using an ATPlite cell viability luminescence assay (PerkinElmer). To this end, ATPlite was added to the wells according to the supplier's instructions once the eGFP read-out was performed, and the luminescence was measured; a measure directly relating to the number of viable cells. The CC50 was determined as the 50% inhibitory concentration for the luminescent signal in compound-treated DENV-infected cells compared to untreated DENV-infected cells (virus control), using a medium control as baseline of emitted light (i.e., 0% signal).

Data set [5] concerns CHIKV strain S27. Kind of data set: CHIKV CPE inhibition assay in Huh7 cells. As to conditions: Chikungunya virus, Huh-7, 48 h, read-out: CHIKV Huh-7 (EC50, μM). In kind it is cell-based. How it is done: The antiviral activities of the nucleoside analogs against chikungunya virus (CHIKV) were tested using a cell-based high-throughput CPE (cytopathic effect) inhibition assay. In this assay, CHIKV strain S27 and Huh7 cells (a human hepatoma cell line) were employed. The test compounds were prepared in a 9-point fourfold serial dilutions and plated in a 384-well plate. Then, a density of 8000 cells/well and an MOI (Multiplicity of Infection) of 0.25 CHIKV were added to each well. The plates were incubated at 37° C./5% CO2 for 2 days. The antiviral activity of a test compound was measured by addition of an ATPLite™ 1-step kit (PerkinElmer), which measures the ATP levels in live cells protected from viral CPE by a test compound. The cytotoxicity of test compounds was measured in parallel in the absence of virus infection. The readout is luminescence.

Data set [6] can be described thus: Cytotoxicity in Vero cells (ATPlite cell viability). It counts as cell-based. To be noted: African green monkey, Table 1A, read-out: Tox Vero (CC50). How it is done: as §1, §4
In general terms: Cellular ATP, detected with luciferase, serves as a proxy for viable cell number.

For data set [7], the system named is HCV replicon (NS3-NS5B regions of HCV type 1b) in Huh-7 luc/neo cells. Kind of data set: HCV replicon assay (Huh-Luc cells, luciferase read-out). It counts as cell-based. As to conditions: Hepatitis C virus, Huh-7, 72 h; Table 1A; Huh-Luc replicon cells, 3 days; read-out: HCV Huh-7 (EC50). From the text: The compounds of Formula (I) were examined for activity against HCV in a cellular assay. […] The cellular assay was based on a bicistronic expression construct, as described by Lohmann et al. (1999) Science vol. 285 pp. 110-113 with modifications described by Krieger et al. (2001) Journal of Virology 75: 4614-4624, in a multi-target screening strategy.
In essence, the method was as follows. The assay utilized the stably transfected cell line Huh-7 luc/neo (hereafter referred to as Huh-Luc). This cell line harbors an RNA encoding a bicistronic expression construct comprising the wild type NS3-NS5B regions of HCV type 1b translated from an internal ribosome entry site (IRES) from encephalomyocarditis virus (EMCV), preceded by a reporter portion (FfL-luciferase), and a selectable marker portion (neo^R, neomycine phosphotransferase). The construct is bordered by 5′ and 3′ NTRs (non-translated regions) from HCV genotype 1b. Continued culture of the replicon cells in the presence of G418 (neo^R) is dependent on the replication of the HCV-RNA. The stably transfected replicon cells that express HCV-RNA, which replicates autonomously and to high levels, encoding inter alia luciferase, were used for screening the antiviral compounds.
The replicon cells were plated in 384-well plates in the presence of the test and control compounds which were added in various concentrations. Following an incubation of three days, HCV replication was measured by assaying luciferase activity (using standard luciferase assay substrates and reagents and a Perkin Elmer ViewLux™ ultraHTS microplate imager). Replicon cells in the control cultures have high luciferase expression in the absence of any inhibitor. The inhibitory activity of the compound on luciferase activity was monitored on the Huh-Luc cells, enabling a dose-response curve for each test compound. EC50 values were then calculated, which value represents the amount of the compound required to decrease the level of detected luciferase activity by 50%, or more specifically, the ability of the genetically linked HCV replicon RNA to replicate.
(In general: Replicon systems follow genome replication, usually without infectious particles.)

Data set [8] deals with DENV-2/16681/eGFP. As to the kind of experiment: Antiviral activity against DENV-2/16681/eGFP in Huh-7 cells (eGFP read-out). In kind it is cell-based, dengue virus serotype 2. As to conditions: Dengue virus, DENV2, Huh-7, 72 h, read-out: DENV Huh-7 (EC50, μM). The protocol:
as §1, §2, §3

pEC50, pIC50: −log10 of the molar value.

For 7 molecules, IC50, EC50 and CC50 results are on record in US11267844B2, “Spirothietane nucleosides” (Janssen Pharmaceutica NV, priority 2017, dated 2022).

HCV polymerase, sequence (Q9WMX2 2420-3010): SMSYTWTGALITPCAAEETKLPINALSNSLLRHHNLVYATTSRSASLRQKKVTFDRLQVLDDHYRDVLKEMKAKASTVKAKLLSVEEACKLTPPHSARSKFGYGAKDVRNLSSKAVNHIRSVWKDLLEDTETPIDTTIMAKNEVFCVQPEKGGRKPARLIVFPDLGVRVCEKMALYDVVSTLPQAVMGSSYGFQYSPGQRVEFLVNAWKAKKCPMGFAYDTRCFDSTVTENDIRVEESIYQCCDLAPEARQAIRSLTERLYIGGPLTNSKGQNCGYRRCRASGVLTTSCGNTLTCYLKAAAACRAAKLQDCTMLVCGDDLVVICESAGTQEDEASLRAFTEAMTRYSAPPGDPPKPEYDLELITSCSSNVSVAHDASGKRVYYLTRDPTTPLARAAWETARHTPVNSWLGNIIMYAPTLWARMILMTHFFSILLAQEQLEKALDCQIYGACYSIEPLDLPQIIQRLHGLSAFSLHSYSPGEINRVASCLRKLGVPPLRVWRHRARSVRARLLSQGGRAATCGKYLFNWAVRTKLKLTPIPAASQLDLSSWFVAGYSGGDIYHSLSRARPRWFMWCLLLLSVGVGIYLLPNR

On to `O=c1ccn([C@@H]2O[C@H](COP(=O)(O)OP(=O)(O)OP(=O)(O)O)[C@@H](O)[C@]23CCS3)c(=O)[nH]1` [Compound 58], for which the negative logarithm of the IC50 (pIC50) – broadly, −log10 of the IC50, conventionally taken in molar units – in data set [1] is 6.13; in data set [2], 4.30.

As to `Nc1ccn([C@@H]2O[C@H](COP(=O)(O)OP(=O)(O)OP(=O)(O)O)[C@@H](O)[C@]23CCS3)c(=O)n1` [Compound 59], the pIC50 in data set [1] was 6.49; in data set [2], 5.54.

Take `O=c1ccn([C@@H]2O[C@](F)(COP(=O)(O)OP(=O)(O)OP(=O)(O)O)[C@@H](O)[C@]23CCS3)c(=O)[nH]1` [Compound 60]: the figures for the pIC50 in data set [1] and in data set [2] were 6.16 and below 5.00, respectively.

Consider `Nc1ccn([C@@H]2O[C@](F)(COP(=O)(O)OP(=O)(O)OP(=O)(O)O)[C@@H](O)[C@]23CCS3)c(=O)n1` [Compound 61], for which the pIC50 is 6.80 in data set [1] and 5.61 in data set [2].

Turning to `[N-]=[N+]=N[C@]1(COP(=O)(O)OP(=O)(O)OP(=O)(O)O)O[C@@H](n2ccc(=O)[nH]c2=O)[C@@]2(CCS2)[C@@H]1O` [Compound 62], the pIC50 in data set [1] is 6.25.

Regarding `Nc1nc2c(ncn2[C@@H]2O[C@H](COP(=O)(O)OP(=O)(O)OP(=O)(O)O)[C@@H](O)[C@]23CCS3)c(=O)[nH]1` [Compound 63], the values for the pIC50 in data set [1] and in data set [2] were 6.74 and below 5.00, respectively.

Turning to `Nc1ncnc2c1ncn2[C@@H]1O[C@H](CO)[C@@H](O)[C@]12CCS2` [Compound 67, (4R,5R,7R,8R)-5-(6-amino-9H-purin-9-yl)-7-(hydroxymethyl)-6-oxa-1-thiaspiro[3.4]octan-8-ol], the EC50 in data set [3], in data set [5] and in data set [8] was above 50 µM in each case. The 50% cytotoxic concentration (CC50) in data set [4] and in data set [6] was above 50000 nM each time. In addition, the pEC50 (usually the EC50 on a negative log10 scale, so that one unit is a factor of ten) in data set [7] is below 4.30.
